From patent publication US6403765B1, “Truncated Apaf-1 and methods of use thereof” (Thomas Jefferson University, priority 1998, dated 2002)
Entries after “also recorded” stand apart in the source; their conditions may differ. One block for each molecule: values may come before it.

How the values were obtained:
procaspase-6 = assay: Cytochrome c/dATP-dependent processing of procaspase-6 in 293 cellular S100 extract; format: biochemical; conditions: 35S-labeled procaspase-6, 293 S100 extract, FIG. 8
Description: (§1) In FIG. 8, ^35S-labeled procaspase-3, -6 or -7 were incubated with S100 extracts from 293 cells in the presence or absence of cytochrome c/dATP or DEVD-CHO, or both and analyzed by SDS-PAGE followed by autoradiography. However, when DEVD-CHO was included, processing of procaspase-6 (lane 6), but not procaspase-3 (lane 3) or -7 (lane 9) was inhibited. […] Also, since caspase-7 cannot process procaspase-6 (Srinivasula et al., J. Biol. Chem. 271:27099-27106, 1996), caspase-3 is the one responsible for processing of procaspase-6 in the cytochrome c plus dATP-dependent pathway.

procaspase-3 = assay: Cytochrome c/dATP-dependent processing of procaspase-3 in 293 cellular S100 extract; format: biochemical; conditions: cytochrome c/dATP
Description: (§2) To confirm this, a time course analysis of procaspase-9 and procaspase-3 processing was performed in cellular S100 extracts from 293 and MCF-7 cells. […] At the indicated times the reactions were stopped and then analyzed by SDS-PAGE and autoradiography (procaspase-9 panels) or Western blot analysis using anti-caspase-3 p20 polyclonal antibody (procaspase-3 panels). Small arrows indicate a non-specific band detected by the anti-caspase-3 antibody.
as §1
(§3) In FIG. 18, 293 cellular S100 extracts supplemented with ^35S-labeled procaspase-9 (upper panel) or procaspase-3 (lower panel) were incubated with (lanes 3-7) or without (lane 2) cytochrome c plus dATP in the presence of increasing amounts of purified recombinant procaspase-9-C287A mutant for 1 hour at 30° C. and then analyzed by SDS-PAGE and autoradiography. […] Consequently, the Apaf-1/caspase-9 pathway appears to be a central apoptotic pathway, on which most apoptotic signals converge.

procaspase-9 = assay: Cytochrome c/dATP-dependent processing of procaspase-9 in 293 cellular S100 extract; format: biochemical; conditions: 293 S100 extract, cytochrome c plus dATP
Description: To study processing of procaspase-9 in the cytochrome c/Apaf-1-dependent pathway, WT and the Asp to Ala mutants of procaspase-9 were incubated with a cellular S100 extract in the presence or absence of cytochrome c and dATP. […] Samples were then analyzed by SDS-PAGE and autoradiography.
as §2, §3

procaspase-7 = assay: Cytochrome c/dATP-dependent processing of procaspase-7 in 293 cellular S100 extract; format: biochemical; conditions: 35S-labeled procaspase-7, 293 S100 extract, FIG. 8
Description: as §1

[1] = target: T1, recombinant Apaf-530 (Ni2+-affinity purified, bacterially expressed, C-terminal His6 tag)
T1 chain: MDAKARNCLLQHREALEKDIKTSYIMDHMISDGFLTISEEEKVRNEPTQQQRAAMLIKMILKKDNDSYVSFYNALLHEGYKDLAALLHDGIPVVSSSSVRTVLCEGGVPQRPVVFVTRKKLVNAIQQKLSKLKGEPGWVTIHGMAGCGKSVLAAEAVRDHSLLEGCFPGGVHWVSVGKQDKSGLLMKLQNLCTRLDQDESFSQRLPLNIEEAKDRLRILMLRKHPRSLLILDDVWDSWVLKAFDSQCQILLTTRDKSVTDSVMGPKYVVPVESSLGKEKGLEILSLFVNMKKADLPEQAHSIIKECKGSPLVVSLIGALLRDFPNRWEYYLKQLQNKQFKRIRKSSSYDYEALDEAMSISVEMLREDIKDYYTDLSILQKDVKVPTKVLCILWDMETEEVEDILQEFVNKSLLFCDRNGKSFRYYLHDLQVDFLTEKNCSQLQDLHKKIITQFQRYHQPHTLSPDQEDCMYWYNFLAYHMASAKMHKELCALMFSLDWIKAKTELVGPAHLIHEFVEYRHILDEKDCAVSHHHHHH

[2] = target: T2, Apaf-1 (endogenous, in 293 cellular S100 extract, with cytochrome c plus dATP)
T2 chain: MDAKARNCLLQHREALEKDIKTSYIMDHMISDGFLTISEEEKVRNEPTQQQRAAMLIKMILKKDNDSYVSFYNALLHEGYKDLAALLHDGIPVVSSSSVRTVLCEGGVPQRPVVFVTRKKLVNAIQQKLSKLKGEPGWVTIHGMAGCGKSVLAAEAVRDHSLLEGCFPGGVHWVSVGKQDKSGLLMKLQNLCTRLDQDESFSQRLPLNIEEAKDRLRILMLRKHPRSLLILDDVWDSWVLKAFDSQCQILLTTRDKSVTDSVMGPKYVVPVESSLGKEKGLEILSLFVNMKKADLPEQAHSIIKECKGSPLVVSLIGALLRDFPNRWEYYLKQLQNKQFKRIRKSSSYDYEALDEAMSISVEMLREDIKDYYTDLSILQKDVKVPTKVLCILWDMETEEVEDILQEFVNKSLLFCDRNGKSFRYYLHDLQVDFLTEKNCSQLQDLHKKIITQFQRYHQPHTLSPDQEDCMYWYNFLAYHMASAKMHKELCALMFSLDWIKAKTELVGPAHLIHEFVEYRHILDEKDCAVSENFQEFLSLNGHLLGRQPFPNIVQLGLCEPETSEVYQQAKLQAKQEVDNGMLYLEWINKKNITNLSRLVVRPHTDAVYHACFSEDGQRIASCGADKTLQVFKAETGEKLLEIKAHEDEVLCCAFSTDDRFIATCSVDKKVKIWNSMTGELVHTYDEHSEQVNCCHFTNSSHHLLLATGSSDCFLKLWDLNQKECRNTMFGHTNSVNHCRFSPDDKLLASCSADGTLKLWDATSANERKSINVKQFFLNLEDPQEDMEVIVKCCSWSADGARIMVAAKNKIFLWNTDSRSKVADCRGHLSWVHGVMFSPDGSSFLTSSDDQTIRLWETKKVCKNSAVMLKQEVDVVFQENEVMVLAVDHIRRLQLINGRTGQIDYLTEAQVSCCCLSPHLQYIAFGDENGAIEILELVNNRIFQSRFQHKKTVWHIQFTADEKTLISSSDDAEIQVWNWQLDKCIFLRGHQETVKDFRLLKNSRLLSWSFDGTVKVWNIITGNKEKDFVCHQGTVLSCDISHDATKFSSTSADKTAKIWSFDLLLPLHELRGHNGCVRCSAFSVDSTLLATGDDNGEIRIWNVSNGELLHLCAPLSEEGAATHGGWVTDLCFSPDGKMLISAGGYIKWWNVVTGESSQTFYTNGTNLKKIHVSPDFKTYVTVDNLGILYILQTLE

T7-tagged Apaf-530 = target: T3, T7-tagged Apaf-530 (human, UniProt O14727 1-541); assay: co-immunoprecipitation from co-transfected 293 cells: anti-Flag IP, anti-T7 immunoblot
T3 construct: Expressed in co-transfected 293 cells; also called T7-Apaf-530
T3 sequence: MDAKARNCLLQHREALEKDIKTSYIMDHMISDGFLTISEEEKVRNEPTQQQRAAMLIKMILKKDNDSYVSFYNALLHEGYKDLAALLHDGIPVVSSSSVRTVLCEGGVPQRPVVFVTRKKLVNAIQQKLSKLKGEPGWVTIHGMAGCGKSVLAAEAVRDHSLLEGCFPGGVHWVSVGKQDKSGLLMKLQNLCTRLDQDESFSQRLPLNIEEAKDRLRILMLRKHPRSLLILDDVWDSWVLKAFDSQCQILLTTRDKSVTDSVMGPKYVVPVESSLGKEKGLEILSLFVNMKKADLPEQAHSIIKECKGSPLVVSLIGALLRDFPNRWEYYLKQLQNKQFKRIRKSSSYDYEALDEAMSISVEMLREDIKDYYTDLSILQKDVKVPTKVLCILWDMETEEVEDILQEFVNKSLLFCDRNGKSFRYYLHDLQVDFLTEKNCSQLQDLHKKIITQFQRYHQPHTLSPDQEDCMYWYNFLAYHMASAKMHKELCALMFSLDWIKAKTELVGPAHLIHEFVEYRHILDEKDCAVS
Description: (§4) The immunoprecipitates were analyzed by Western blotting with an anti-T7 antibody.
(§5) After 36 hours, extracts were prepared and immunoprecipitated with a monoclonal antibody to the Flag epitope. The immunoprecipitates (upper panel) were analyzed by SDS-PAGE and immunoblotted with a horseradish peroxides-conjugated T7 antibody.
(§6) In vivo interaction experiments between Apaf-1 variants and Bcl-x_L were performed. […] After 36 hours, extracts were prepared and immunoprecipitated with a monoclonal antibody to the Flag epitope. The immunoprecipitates (FIG. 16, upper panel) were analyzed by SDS-PAGE and immunoblotted with a horseradish peroxidase-conjugated T7 antibody.

T7-tagged Bcl-xL = target: T4, T7-tagged Bcl-xL (UniProt Q07817 1-233); assay: as above
T4 construct: Expressed in co-transfected 293 cells
T4 sequence (Q07817 whole entry): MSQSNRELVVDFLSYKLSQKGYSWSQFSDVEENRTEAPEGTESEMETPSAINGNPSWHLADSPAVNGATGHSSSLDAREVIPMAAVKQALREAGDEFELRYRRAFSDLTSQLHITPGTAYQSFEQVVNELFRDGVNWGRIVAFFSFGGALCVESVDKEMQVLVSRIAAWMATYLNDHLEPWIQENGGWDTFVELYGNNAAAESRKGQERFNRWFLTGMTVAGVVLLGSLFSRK
Description: as §4, §5, §6

[3] = 293 S100 extract, Western blot, FIG. 5

inhibition of processing of procaspase-6 (procaspase-6): inhibited
inhibition of processing of procaspase-3 (procaspase-3; 35S-labeled procaspase-3, 293 S100 extract, FIG. 8): not
effect on processing of procaspase-3 (procaspase-3; [3]): slightly attenuated
inhibition of autoconversion of caspase-3-p20 to p19 (procaspase-3; [3]): blocked
inhibition of procaspase-9 processing at Asp315 (autocatalytic generation of p35 fragment) (procaspase-9): not and did not block
inhibition of processing of procaspase-7 (procaspase-7): not
Molecule: Asp-Glu-Val-Asp-aldehyde [DEVD-CHO]
inhibition of procaspase-9 processing at Asp330 (generation of p37 fragment) (procaspase-9): sensitive to inhibition; also recorded: blocked

B1: purified recombinant procaspase-9-C287A mutant (protein)
chain: MDEADRRLLRRCRLRLVEELQVDQLWDALLSRELFRPHMIEDIQRAGSGSRRDQARQLIIDLETRGSQALPLFISCLEDTGQDMLASFLRTNRQAAKLSKPTLENLTPVVLRPEIRKPEVLRPETPRPVDIGSGGFGDVGALESLRGNADLAYILSMEPCGHCLIINNVNFCRESGLRTRTGSNIDCEKLRRRFSSLHFMVEVKGDLTAKKMVLALLELAQQDHGALDCCVVVILSHGCQASHLQFPGAVYGTDGCPVSVEKIVNIFNGTSCPSLGGKPKLFFIQAAGGEQKDHGFEVASTSPEDESPGSNPEPDATPFQEGLRTFDQLDAISSLPTPSDIFVSYSTFPGFVSWRDPKSGSWYVETLDDIFEQWAHSEDLQSLLLRVANAVSVKGIYKQMPGCFNFLRKKLFFKTS
Apaf-530-induced activation of procaspase-9 in the in vitro reconstituted system [1]: A similar result was also obtained with the Apaf-530-induced activation of procaspase-9 in the in vitro reconstituted system (data not shown)
cytochrome c/dATP-induced activation of procaspase-9 and procaspase-3 in the 293 S100 extract [2]: able to attenuate cytochrome c/dATP-induced activation of procaspase-9 and procaspase-3 in the 293 S100 extract in a dose-dependent manner

binding result (T7-tagged Apaf-530): no binding
binding result (T7-tagged Bcl-xL): no binding
B2: Flag-tagged Apaf-97 (other, not shown: small tags and cut ends)
chain: MDAKARNCLLQHREALEKDIKTSYIMDHMISDGFLTISEEEKVRNEPTQQQRAAMLIKMILKKDNDSYVSFYNALLHEGYKDLAALLHDGIPVVSSS
notes: Expressed in co-transfected 293 cells; also called Flag-Apaf-97
